Tests used:
[1] = system: calf thymus DNA (CT-DNA); conditions: cited from earlier work
[2] = system: Hep-G2 cells; assay: APOPercentage apoptosis assay, Hep-G2; format: cell-based, human; conditions: Hep-G2, 24 h, IC50 of complexes, flow cytometry, vs untreated cells

| SMILES | binding constant Kb of known DNA intercalator [1] | induction of apoptosis (APOPercentage dye uptake) [2] |
| --- | --- | --- |
| Nc1ccc2cc3ccc(N)cc3nc2c1 [Proflavine] | 2.32 × 10^4 M^–1 |  |
| COc1cccc2c1C(=O)c1c(O)c3c(c(O)c1C2=O)C[C@@](O)(C(=O)CO)C[C@@H]3O[C@H]1C[C@H](N)[C@@H](O)[C@H](C)O1 [Epirubicin] | 3.4 × 10^4 M^–1 |  |
| N.N.[Cl][Pt][Cl] [Cisplatin] |  | but not Hep-G2 cells |
| CC[n+]1c(-c2ccccc2)c2cc(N)ccc2c2ccc(N)cc21 [ethidium bromide] | 1.4 × 10^6 M^–1 |  |

Reference: publication PMC7330904 (ACS Omega, 2020)
